# Measured values reported in EP4775209A1 (Ascentawits Pharmaceuticals, Ltd., priority 2023, dated 2025).
# Read-outs that look alike come from different tables or passages of the source.
# Legend:
# [1] = system: HuPrime® liver cancer LI6664 subcutaneous xenograft PDX model; assay: Liver cancer LI6664 subcutaneous xenograft PDX efficacy model; format: in vivo, BALB/c nude mice; conditions: all AST-3424 treatment groups (0.3, 1, 1.25 mg/kg)
# [2] = system: human lung cancer (H460-GFP) subcutaneous CDX model; assay: Human lung cancer CDX efficacy model (QW×2 regimen); format: in vivo, nude mice; conditions: QW×2, QW×2, I.V., P<0.01
# Method: Images of tumor burden in mice were non-invasively collected twice a week by a Fluor Vivo Model 100 imaging system, and the mean value of tumor area in each group was calculated based on imaging analysis results. […] The data from this experiment are the data for the H460 model in Example 3-1 of the aforementioned Patent Application 2 (see Table 5 and Figure 5 of this application).
# [3] = system: HuPrime® lung cancer LU5173 subcutaneous xenograft model
# Text: (§1) For the experimental procedures and relevant evaluation indicators of the aforementioned solid tumor animal efficacy models, please refer to Examples 7, 8, and 9 in Patent Application 1, namely PCT/US2016/062114, with Publication No. WO2017/087428 (corresponding to Chinese Application CN201680044608.1, with Publication No. CN108290911B), Examples 3 and 4 in Patent Application 2, namely PCT/CN2021/078115, with Publication No. WO2022178821, and Research Literature 1. The aforementioned non-clinical animal efficacy models (PDX) mentioned in the present application are all similar to those in the aforementioned literatures, and the specific operation procedures thereof are not described herein again.
# The LU5173 is a HuPrime® xenograft model established from a lung cancer (small cell lung carcinoma) tumor of a patient.
# Efficacy was evaluated based on the relative tumor growth inhibition (TGI, %), and safety was evaluated based on animal body weight changes and mortality.
# [4] = system: HuPrime® lung cancer LU5161 subcutaneous xenograft model
# Text: as §1
# LU5161 is a HuPrime® xenograft model established from a lung tumor (small cell lung cancer) of a patient.
# Efficacy was evaluated based on the relative tumor growth inhibition rate (TGI, %), and safety was evaluated based on animal body weight changes and mortality.
# [5] = cited from earlier work
# [6] = cited from earlier work; remark: listed apart in the source
# [7] = 1 mg/kg QD×5, 2 cycles, no animal deaths
# [8] = Regimen A, 12 mg/m^2 dose level
structure (smiles),measurement,setting,value
C[C@H](OP(=O)(N1CC1)N1CC1)c1ccc([N+](=O)[O-])c(Oc2cccc(C(=O)N(C)C)c2)c1 [AST-3424],tolerability (body weight changes and mortality),[1],well tolerated
same,TGI,"[2]; 0.625 mg/kg, 1-week off",60.2%
same,TGI,"[2]; 1.25 mg/kg, 1 week off",67.2%
same,TGI,"[2]; 2.5 mg/kg, 1 week off",88%
same,tolerability (body weight changes and mortality),[3]; [7],well tolerated
same,TGI (%),"[3]; day 32 after first administration, AST-3424 1 mg/kg QD×5, 16 days off, QD×5 (P < 0.001), ifosfamide 6.0 mg/kg QD×5/week for 2 weeks (p > 0.05)",78.56%
same,mean tumor volume,"[3]; day 32 after first administration, AST-3424 1 mg/kg QD×5, 16 days off, QD×5, ifosfamide 6.0 mg/kg QD×5/week for 2 weeks, vehicle 2276.68",503.91 mm^3
same,tumor clearance,"[4]; 1 mg/kg QD×5, 2 cycles, 6 mice per group",the tumor in one mouse was cleared
same,tolerability (body weight changes and mortality),[4]; [7],well tolerated
same,TGI (%),"[4]; day 29 after first administration, AST-3424 1 mg/kg QD×5, 16 days off, QD×5 (P < 0.001), ifosfamide 60 mg/kg QD×5/week for 2 weeks (p > 0.05)",95.62%
same,mean tumor volume,"[4]; day 29 after first administration, AST-3424 1 mg/kg QD×5, 16 days off, QD×5, ifosfamide 60 mg/kg QD×5/week for 2 weeks, negative control 2238.97",94.42 mm^3
same,T1/2,"[5]; after intravenous OBI-3424, US patients, parent drug and metabolite",approximately 0.4 hours
same,pharmacokinetic characteristics,"[5]; doses ranging from 1 to 14 mg/m^2, minimal accumulation after repeated administration",linear pharmacokinetic characteristics
same,probability of grade ≥3 TEAEs,[6]; 12 mg/m^2 on Day 1 and Day 8 of 21-day cycle (all 6 patients),100%
same,probability of grade ≥3 TEAEs,[6]; 12 mg/m^2 only on Day 1 of 21-day cycle (2 out of 6 patients),33.3%
same,recommended Phase II dose (RP2D),"[6]; 21 days per cycle, administration on Day 1 (once every 3 weeks)",12 mg/m^2
same,dose-limiting toxicity: anemia Grade 3-4,[6]; [8],5 out of 6
same,dose-limiting toxicity: thrombocytopenia Grade 3-4,[6]; [8],5 out of 6
same,maximum tolerated dose (MTD),"[6]; Regimen A: i.v., 21 days per cycle, administration on Day 1 and Day 8",8 mg/m^2
same,nadir of the platelet count,[6]; Regimen A,Day 15 or Day 22
same,patients with Grade 3 or higher anemia,"[6]; Regimen B, 14 mg/m^2, among 6 patients treated",3 patients
same,MTD,"[6]; Regimen B: i.v., 21 days per cycle, administration only on Day 1, highest tested dose 14 mg/m^2",not reached
same,patients who experienced treatment-emergent adverse events (TRAEs),[6]; all 39 patients (32/39),82%
same,Grade ≥3 TRAEs,[6]; all 39 patients,49%
same,TRAE anemia,[6]; all 39 patients,64%
same,TRAE fatigue,[6]; all 39 patients,21%
same,TRAE nausea,[6]; all 39 patients,26%
same,TRAE thrombocytopenia,[6]; all 39 patients,51%
same,patients who experienced serious TRAEs,[6]; all 39 patients,3 patients
